Results reported in ChEMBL document CHEMBL3638466 (2015).

Target: Maternal embryonic leucine zipper kinase (Homo sapiens, UniProt Q14680)
Assay: Kinase Assay: MELK activity was determined in the presence or absence of compounds using fluorescein isothiocyanate-labeled (FITC-labeled) histone H3 peptide as a substrate. The extent of FITC-labeled histone H3 peptide phosphorylation was measured by immobilized metal ion affinity-based fluorescence polarization (IMAP) technology (Sportsman J R, et al., Assay Drug Dev. Technol. 2: 205-14, 2004) …
Assay type: single protein

Sequence of Maternal embryonic leucine zipper kinase (Q14680 whole entry): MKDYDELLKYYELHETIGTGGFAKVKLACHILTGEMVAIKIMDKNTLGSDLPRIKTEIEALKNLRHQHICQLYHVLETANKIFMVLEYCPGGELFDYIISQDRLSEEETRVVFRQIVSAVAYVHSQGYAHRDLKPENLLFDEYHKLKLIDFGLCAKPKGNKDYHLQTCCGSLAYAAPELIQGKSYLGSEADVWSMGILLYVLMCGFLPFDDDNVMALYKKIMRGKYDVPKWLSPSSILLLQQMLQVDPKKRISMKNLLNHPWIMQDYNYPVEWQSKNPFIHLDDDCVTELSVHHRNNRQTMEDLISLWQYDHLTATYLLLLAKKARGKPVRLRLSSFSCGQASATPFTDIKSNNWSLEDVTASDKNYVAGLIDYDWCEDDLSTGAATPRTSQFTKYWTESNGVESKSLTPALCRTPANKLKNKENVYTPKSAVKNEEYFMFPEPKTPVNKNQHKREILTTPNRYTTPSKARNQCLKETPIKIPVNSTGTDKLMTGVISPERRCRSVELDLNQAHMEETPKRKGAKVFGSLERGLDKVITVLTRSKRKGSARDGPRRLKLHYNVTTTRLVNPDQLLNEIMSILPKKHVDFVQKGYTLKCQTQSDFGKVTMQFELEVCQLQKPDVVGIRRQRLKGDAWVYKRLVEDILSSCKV

Structure (SMILES) | IC50
CC(=O)c1cnc2ccc(-c3cc(Cl)c(O)c(Cl)c3)nc2c1NC[C@H]1CC[C@H](N(C)C)CC1 | 0.6 nM
CC(=O)c1cnc2ccc(-c3cc(F)c(O)c(Cl)c3)nc2c1N[C@H]1CC[C@H](NC(=O)[C@@H]2CCCN2)CC1 | 2.4 nM
